# Several values for one entry are separate records, joined by “and”; a condition that tells them apart may be missing. Identical values can stand only once.
# Experiments:
# [1] = system: s.c. HER2(−) MDA-MB-468 tumors; format: in vivo, mouse; conditions: 24 h p.i.
# [2] = system: s.c. HER2(+) BT-474 tumors; assay: Dosimetry calculations (estimated absorbed doses, therapeutic index); conditions: optimized anti-HER2-DOTA-PRIT, from 1.0-336 h biodistribution
# From the text: For each tissue, the non-decay-corrected time-activity concentration data were fit using Excel to a 1-component, 2-component, or more complex exponential function as appropriate, and analytically integrated to yield the cumulated activity concentration per unit administered activity (MBq-h/g per MBq). The ^177Lu equilibrium dose constant for non-penetrating radiations (8.49 g-cGy/MBq-h) was used to estimate the tumor-to-tumor and select organ-to-organ self-absorbed doses, assuming complete local absorption of the ^177Lu beta rays only, and ignoring the gamma ray and non-self dose contributions.
# [3] = Toxicity assessment: weight monitoring and removal criteria; format: in vivo, mouse
# [4] = Hematology panel; format: in vivo, mouse; conditions: small tumors; single-cycle study, 55.5 MBq; ~85 d
# [5] = Clinical chemistry panel; format: in vivo, mouse; conditions: small tumors; single-cycle study, 55.5 MBq; ~85 d
# [6] = system: HER2(+) BT-474 tumors; assay: Biodistribution with modified BsAb / clearing agent time intervals (same-day PRIT); format: in vivo, mouse; conditions: for average blood uptake / average tumor uptake: 24 h p.i.
# Description: During a second set of experiments (Table 31), the BsAb timing interval was varied, as well as the timing interval between the clearing agent and ^177Lu-DOTA-Bn. All animals were sacrificed 24 hours-post-injection of ^177Lu-DOTA-Bn.
# [7] = MDA-MB-468 HER2(−), PRIT + no CA, mean ± SEM
# [8] = medium tumors, single-cycle, 33.3 MBq, ~200 d
# [9] = small tumors, single-cycle study, 55.5 MBq, ~85 d
# [10] = BsAb for 4 hours, then CA vehicle only (total BsAb circulation 8 hours)
# [11] = Table 30 group 3 (increased clearing agent dose)
structure (smiles),measurement,setting,value
Nc1ccc(CC2CN(CC(=O)[O-])CCN(CC(=O)[O-])CCN(CC(=O)[O-])CCN2CC(=O)[O-])cc1.[177Lu+3] (stereo not shown) [^177Lu-DOTA-Bn],"tumor uptake in HER2(−) tumors vs HER2(+) BT-474 tumors, fold lower","[1]; PRIT, no CA",~7 fold
same,^177Lu activity in Blood,[1]; [7],6.59 ± 1.31 % IA/g
same,^177Lu activity in Bone,[1]; [7],0.62 ± 0.17 % IA/g
same,^177Lu activity in Heart,[1]; [7],1.78 ± 0.29 % IA/g
same,^177Lu activity in Kidneys,[1]; [7],2.39 ± 0.54 % IA/g
same,^177Lu activity in Large Int.,[1]; [7],0.35 ± 0.06 % IA/g
same,^177Lu activity in Liver,[1]; [7],2.69 ± 0.35 % IA/g
same,^177Lu activity in Lungs,[1]; [7],2.44 ± 0.42 % IA/g
same,^177Lu activity in Muscle,[1]; [7],0.50 ± 0.14 % IA/g
same,^177Lu activity in Small Int.,[1]; [7],0.61 ± 0.11 % IA/g
same,^177Lu activity in Spleen,[1]; [7],1.06 ± 0.16 % IA/g
same,^177Lu activity in Stomach,[1]; [7],0.27 ± 0.04 % IA/g
same,^177Lu activity in Tumor,[1]; [7],2.75±0.17 % IA/g
same,"Estimated absorbed dose, Blood",[2],1.4 cGy/MBq
same,"Estimated absorbed dose, Bone",[2],0.7 cGy/MBq
same,"Estimated absorbed dose, Heart",[2],0.4 cGy/MBq
same,"Estimated absorbed dose, Kidneys",[2],5.6 cGy/MBq
same,"Estimated absorbed dose, Large Intestine",[2],0.8 cGy/MBq
same,"Estimated absorbed dose, Liver",[2],3.3 cGy/MBq
same,"Estimated absorbed dose, Lung",[2],1.3 cGy/MBq
same,"Estimated absorbed dose, Muscle",[2],0.9 cGy/MBq
same,"Estimated absorbed dose, Small Intestine",[2],0.4 cGy/MBq
same,"Estimated absorbed dose, Spleen",[2],0.3 cGy/MBq
same,"Estimated absorbed dose, Stomach",[2],0.3 cGy/MBq
same,"Estimated absorbed dose, Tumor",[2],39.9 cGy/MBq
same,animals removed: Discovered deceased,[3]; [8],1/5
same,animals removed: Tumor burden,[3]; [8],4/5
same,animals removed: Weight loss,[3]; [8],0/5
same,animals removed: Discovered deceased,[3]; [9],0/5
same,animals removed: Tumor burden,[3]; [9],0/5
same,animals removed: Weight loss,[3]; [9],0/5
same,HGB,[4],13.1 g/dL and 12.9 g/dL and 14.3 g/dL and 14.9 g/dL and 14.0 g/dL
same,RBC,[4],8.22 M/μL and 7.74 M/μL and 8.54 M/μL and 8.80 M/μL and 8.32 M/μL
same,ALT,[5],34 U/L and 40 U/L and 30 U/L and 45 U/L and 24 U/L
same,BUN,[5],22 mg/dL and 21 mg/dL and 23 mg/dL and 33 mg/dL and 38 mg/dL
same,CREA,[5],0.20 mg/dL and 0.18 mg/dL and 0.19 mg/dL and 0.30 mg/dL and 0.22 mg/dL
same,Tumor:Blood ratio,[6]; [10],~3.2
same,blood uptake,[6]; [10],12.07 % ID/g
same,tumor uptake,[6]; [10],~40 % ID/g
same,average blood uptake,[6]; Table 30 group 1,0.06
same,average tumor uptake,[6]; Table 30 group 1,11.62
same,average blood uptake,[6]; [11],0.03
same,average tumor uptake,[6]; [11],4.14
